Test results taken from the NIST ThermoML archive (doi:10.1016/j.tca.2012.10.024).
± gives the expanded uncertainty stated by the source.

Key:
[1] = refractive index (Na D-line) (dimensionless); conditions: 101.33 kPa, Liquid, Standard Abbe refractometry
[2] = 101.33 kPa, Liquid, Pycnometric method
[3] = relative permittivity at zero frequency (dimensionless); conditions: 101.33 kPa, Liquid, Parallel plate capacitor

Work on COCCOCCOCCOCCOC [2,5,8,11,14-pentaoxapentadecane] yielded a refractive index ([1]; 293.15 K) of 1.4326 ± 0.0009, a refractive index ([1]; 298.15 K) of 1.4306 ± 0.0009 and a refractive index ([1]; 303.15 K) of 1.4286 ± 0.0009. For the same molecule, the mass density ([2]; 293.15 K) was 1011.06 ± 1.4 kg/m3, the mass density ([2]; 298.15 K) was 1007.07 ± 1.4 kg/m3 and the mass density ([2]; 303.15 K) was 1002.49 ± 1.4 kg/m3. The “relative permittivity at zero frequency” value ([3]; 293.15 K) was 7.939 ± 0.48, the “relative permittivity at zero frequency” value ([3]; 298.15 K) was 7.816 ± 0.47 and the “relative permittivity at zero frequency” value ([3]; 303.15 K) was 7.692 ± 0.46.
For CCCCCO [pentan-1-ol], the refractive index ([1]; 293.15 K) was 1.41 ± 0.0008, the refractive index ([1]; 298.15 K) was 1.4082 ± 0.0008 and the refractive index ([1]; 303.15 K) was 1.4061 ± 0.0008. The “relative permittivity at zero frequency” value ([3]; 293.15 K) was 15.739 ± 0.94, the “relative permittivity at zero frequency” value ([3]; 298.15 K) was 15.158 ± 0.91 and the “relative permittivity at zero frequency” value ([3]; 303.15 K) was 14.579 ± 0.88.
CCCCCCCC [octane] gave a refractive index ([1]; 293.15 K) of 1.3976 ± 0.0008, a refractive index ([1]; 298.15 K) of 1.3952 ± 0.0008 and a refractive index ([1]; 303.15 K) of 1.3929 ± 0.0008. For the same molecule, the “relative permittivity at zero frequency” value ([3]; 293.15 K) was 1.968 ± 0.12, the “relative permittivity at zero frequency” value ([3]; 298.15 K) was 1.961 ± 0.12 and the “relative permittivity at zero frequency” value ([3]; 303.15 K) was 1.954 ± 0.12.
